{
  "source": "ChEMBL document CHEMBL5108059",
  "about": "“Discovery of 2-Methyl-2-(4-(2-methyl-8-(1H-pyrrolo[2,3-b]pyridin-6-yl)-1H-naphtho[1,2-d]imidazol-1-yl)phenyl)propanenitrile as a Novel PI3K/mTOR Inhibitor with Enhanced Antitumor Efficacy In Vitro and In Vivo” (J Med Chem, 2022)",
  "key": {"HeLa [1]": {"tested_on": "HeLa", "assay": "Antitumor activity against human HeLa cells xenografted in BALB/c nude mouse assessed as tumor growth inhibition at 15 mg/kg, IG administered daily for 30 days and measured every 2 days relative to control", "assay_type": "functional", "details": "po, 720 h, time 30 day, read-out: TGI"}, "HeLa [2]": {"tested_on": "HeLa", "assay": "Induction of apoptosis in human HeLa cells assessed as viable cells at 1.25 uM incubated for 36 hrs by Annexin V-FITC/PI staining based flow cytometric analysis (reference value: 96.14 %)", "assay_type": "functional", "details": "read-out: Activity"}, "HeLa [3]": {"tested_on": "HeLa", "assay": "Induction of apoptosis in human HeLa cells assessed as dead cells at 1.25 uM incubated for 36 hrs by Annexin V-FITC/PI staining based flow cytometric analysis (reference value: 0.44 %)", "assay_type": "functional"}, "HeLa [4]": {"tested_on": "HeLa", "assay": "Induction of apoptosis in human HeLa cells assessed as dead cells at 2.5 uM incubated for 36 hrs by Annexin V-FITC/PI staining based flow cytometric analysis (reference value: 0.44 %)", "assay_type": "functional"}, "SW-620 [5]": {"tested_on": "SW-620", "assay": "Inhibition of colony formation in human SW620 cells assessed as reduction in colony forming ability at 1.25 uM incubated for 15 days by crystal violet staining based analysis", "assay_type": "functional", "details": "SW-620, 360 h, time 15 day"}, "[6]": {"molecular_target": "Phosphatidylinositol 4,5-bisphosphate 3-kinase catalytic subunit alpha isoform (Homo sapiens, UniProt P42336)", "sequence (P42336 whole entry, canonical isoform)": "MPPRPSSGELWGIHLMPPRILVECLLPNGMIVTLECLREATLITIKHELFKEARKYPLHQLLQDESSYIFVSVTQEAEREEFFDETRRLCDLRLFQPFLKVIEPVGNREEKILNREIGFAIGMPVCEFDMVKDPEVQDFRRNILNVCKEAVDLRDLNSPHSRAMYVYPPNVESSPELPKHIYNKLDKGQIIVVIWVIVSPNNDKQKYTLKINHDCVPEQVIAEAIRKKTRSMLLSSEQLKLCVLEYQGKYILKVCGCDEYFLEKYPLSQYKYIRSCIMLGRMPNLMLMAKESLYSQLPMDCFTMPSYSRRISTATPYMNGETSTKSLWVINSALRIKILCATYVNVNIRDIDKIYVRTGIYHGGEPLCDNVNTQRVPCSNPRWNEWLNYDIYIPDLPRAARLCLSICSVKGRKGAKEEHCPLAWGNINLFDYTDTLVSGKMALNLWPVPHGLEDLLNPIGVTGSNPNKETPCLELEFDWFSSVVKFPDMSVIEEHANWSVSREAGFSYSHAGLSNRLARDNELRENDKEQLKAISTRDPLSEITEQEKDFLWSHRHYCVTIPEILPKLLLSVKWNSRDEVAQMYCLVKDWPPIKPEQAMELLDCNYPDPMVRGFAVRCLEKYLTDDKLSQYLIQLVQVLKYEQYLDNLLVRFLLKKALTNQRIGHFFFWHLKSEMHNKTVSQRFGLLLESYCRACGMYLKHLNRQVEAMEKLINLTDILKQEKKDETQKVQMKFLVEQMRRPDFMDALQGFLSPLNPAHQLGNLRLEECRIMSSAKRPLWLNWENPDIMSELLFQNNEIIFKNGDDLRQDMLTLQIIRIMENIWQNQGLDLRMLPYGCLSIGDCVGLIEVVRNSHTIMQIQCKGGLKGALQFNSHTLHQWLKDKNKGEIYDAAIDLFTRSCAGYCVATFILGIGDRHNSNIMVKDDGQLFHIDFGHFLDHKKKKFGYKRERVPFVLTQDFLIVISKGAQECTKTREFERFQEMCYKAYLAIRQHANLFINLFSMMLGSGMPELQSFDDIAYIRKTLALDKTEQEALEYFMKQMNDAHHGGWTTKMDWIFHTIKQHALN", "assay": "Inhibition of PI3Kalpha (unknown origin) using L-alpha-phosphatidylinositol as substrate incubated for 60 mins in presence of ATP by Kinase Glo luminescence assay"}, "[7]": {"assay": "Toxicity in BALB/c nude mouse xenografted with human SW620 cells assessed as lethality at 15 to 60 mg/kg, IG administered daily for 30 days and measured every 2 days", "assay_type": "organism-based, SW-620", "details": "in vivo, po, 720 h, dose 15-60 mg/kg, time 30 day"}, "HeLa [8]": {"tested_on": "HeLa", "assay": "Induction of apoptosis in human HeLa cells assessed as viable cells at 0.3125 uM incubated for 36 hrs by Annexin V-FITC/PI staining based flow cytometric analysis (reference value: 96.14 %)", "assay_type": "functional", "details": "read-out: Activity"}, "SW-620 [9]": {"tested_on": "SW-620", "assay": "Inhibition of colony formation in human SW620 cells assessed as reduction in colony forming ability incubated for 15 days by crystal violet staining based analysis", "assay_type": "functional, cell-based", "details": "dose 0.15625-1.25 µM, time 15.0 day, DDE = dose-dependent effect"}, "HeLa [10]": {"tested_on": "HeLa", "assay": "Induction of apoptosis in human HeLa cells assessed as dead cells at 0.625 uM incubated for 36 hrs by Annexin V-FITC/PI staining based flow cytometric analysis (reference value: 0.44 %)", "assay_type": "functional"}, "HeLa [11]": {"tested_on": "HeLa", "assay": "Induction of apoptosis in human HeLa cells assessed as late apoptotic cells at 0.625 uM incubated for 36 hrs by Annexin V-FITC/PI staining based flow cytometric analysis (reference value: 1.4 %)", "assay_type": "functional"}, "[12]": {"molecular_target": "Phosphatidylinositol 4,5-bisphosphate 3-kinase catalytic subunit gamma isoform (Homo sapiens, UniProt P48736)", "sequence (P48736 whole entry, canonical isoform)": "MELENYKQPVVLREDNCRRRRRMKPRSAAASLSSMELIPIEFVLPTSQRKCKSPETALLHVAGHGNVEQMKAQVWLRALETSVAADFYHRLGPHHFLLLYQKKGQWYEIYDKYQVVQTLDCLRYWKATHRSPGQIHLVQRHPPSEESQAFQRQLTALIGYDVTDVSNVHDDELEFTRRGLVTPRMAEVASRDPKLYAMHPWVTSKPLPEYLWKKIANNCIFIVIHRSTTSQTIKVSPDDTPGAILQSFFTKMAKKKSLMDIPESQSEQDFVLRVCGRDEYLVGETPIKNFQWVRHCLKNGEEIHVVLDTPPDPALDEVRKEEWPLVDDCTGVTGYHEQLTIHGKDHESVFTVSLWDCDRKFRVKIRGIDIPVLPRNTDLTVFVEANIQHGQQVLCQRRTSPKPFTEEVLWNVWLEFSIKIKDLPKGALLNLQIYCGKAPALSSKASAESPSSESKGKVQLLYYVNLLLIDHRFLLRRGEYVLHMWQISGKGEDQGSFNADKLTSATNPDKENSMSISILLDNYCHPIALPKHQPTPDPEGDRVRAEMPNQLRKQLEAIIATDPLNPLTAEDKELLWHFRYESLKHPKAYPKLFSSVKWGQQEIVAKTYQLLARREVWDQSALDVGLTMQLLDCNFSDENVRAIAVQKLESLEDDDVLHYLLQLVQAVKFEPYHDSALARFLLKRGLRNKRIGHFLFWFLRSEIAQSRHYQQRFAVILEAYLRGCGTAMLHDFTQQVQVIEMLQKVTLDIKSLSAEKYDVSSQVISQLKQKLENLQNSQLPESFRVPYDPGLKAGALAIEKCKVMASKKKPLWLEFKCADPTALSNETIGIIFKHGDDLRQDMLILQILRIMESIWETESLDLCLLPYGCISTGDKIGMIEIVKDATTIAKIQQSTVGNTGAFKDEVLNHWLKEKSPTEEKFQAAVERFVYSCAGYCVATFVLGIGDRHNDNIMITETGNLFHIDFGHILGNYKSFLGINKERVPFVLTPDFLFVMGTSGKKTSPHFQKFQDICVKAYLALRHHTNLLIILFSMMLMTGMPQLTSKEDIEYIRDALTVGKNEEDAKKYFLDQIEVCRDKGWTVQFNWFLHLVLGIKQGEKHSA", "assay": "Inhibition of PI3Kgamma (unknown origin) using PIP2 as substrate incubated for 2 hrs in presence of ATP by Kinase Glo luminescence assay"}, "HeLa [13]": {"tested_on": "HeLa", "assay": "Induction of apoptosis in human HeLa cells assessed as early apoptotic cells at 1.25 uM incubated for 36 hrs by Annexin V-FITC/PI staining based flow cytometric analysis (reference value: 2.02 %)", "assay_type": "functional"}, "HeLa [14]": {"tested_on": "HeLa", "assay": "Antiproliferative activity against human HeLa cells assessed as inhibition of cell growth incubated for 48 to 72 hrs by MTT assay", "assay_type": "functional, cell-based"}, "HeLa [15]": {"tested_on": "HeLa", "assay": "Induction of apoptosis in human HeLa cells assessed as dead cells at 0.3125 uM incubated for 36 hrs by Annexin V-FITC/PI staining based flow cytometric analysis (reference value: 0.44 %)", "assay_type": "functional"}, "HeLa [16]": {"tested_on": "HeLa", "assay": "Induction of apoptosis in human HeLa cells assessed as early apoptotic cells at 2.5 uM incubated for 36 hrs by Annexin V-FITC/PI staining based flow cytometric analysis (reference value: 2.02 %)", "assay_type": "functional"}, "[17]": {"assay": "Volume of distribution at steady state in Sprague-Dawley rat at 1 mg/kg, iv measured for 24 hrs by LC-MS/MS analysis", "assay_type": "ADME, organism-based", "details": "in vivo, read-out: Vdss"}, "[18]": {"molecular_target": "T1, Phosphatidylinositol 4,5-bisphosphate 3-kinase catalytic subunit delta isoform (Homo sapiens, UniProt O00329)", "T1 sequence (O00329 whole entry)": "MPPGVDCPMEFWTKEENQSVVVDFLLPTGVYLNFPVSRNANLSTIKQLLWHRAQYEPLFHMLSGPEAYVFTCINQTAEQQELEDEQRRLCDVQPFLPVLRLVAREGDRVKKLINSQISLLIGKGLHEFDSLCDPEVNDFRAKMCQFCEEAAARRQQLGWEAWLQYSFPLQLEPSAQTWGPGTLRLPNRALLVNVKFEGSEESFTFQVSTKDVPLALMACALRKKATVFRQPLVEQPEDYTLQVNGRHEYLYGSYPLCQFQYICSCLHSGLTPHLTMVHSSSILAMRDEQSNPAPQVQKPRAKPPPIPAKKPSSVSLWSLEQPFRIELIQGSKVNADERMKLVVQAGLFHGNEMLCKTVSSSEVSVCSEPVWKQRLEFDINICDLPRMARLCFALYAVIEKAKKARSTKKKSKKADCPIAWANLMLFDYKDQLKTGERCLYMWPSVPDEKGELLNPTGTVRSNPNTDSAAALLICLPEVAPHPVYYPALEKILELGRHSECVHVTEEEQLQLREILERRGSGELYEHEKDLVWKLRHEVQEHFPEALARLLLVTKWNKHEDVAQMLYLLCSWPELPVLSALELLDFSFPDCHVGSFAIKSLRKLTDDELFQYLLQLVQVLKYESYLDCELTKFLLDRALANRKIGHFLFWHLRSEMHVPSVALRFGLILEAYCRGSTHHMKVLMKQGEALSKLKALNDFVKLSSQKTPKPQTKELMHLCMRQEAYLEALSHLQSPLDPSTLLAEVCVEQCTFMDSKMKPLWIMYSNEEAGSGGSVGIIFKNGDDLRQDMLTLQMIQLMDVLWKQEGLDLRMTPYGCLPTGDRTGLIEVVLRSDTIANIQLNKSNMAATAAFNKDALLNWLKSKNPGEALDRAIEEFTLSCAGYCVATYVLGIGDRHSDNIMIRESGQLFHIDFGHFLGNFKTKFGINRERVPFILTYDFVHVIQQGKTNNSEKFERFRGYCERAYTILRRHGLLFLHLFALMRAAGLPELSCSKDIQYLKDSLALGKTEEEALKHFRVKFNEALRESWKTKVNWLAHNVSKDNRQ", "assay": "Inhibition of PI3Kdelta (unknown origin) using L-alpha-phosphatidylinositol as substrate incubated for 60 mins in presence of ATP by Kinase Glo luminescence assay"}, "[19]": {"assay": "Toxicity in BALB/c nude mouse xenografted with human SW620 cells assessed as reduction in body weight at 15 to 60 mg/kg, IG administered daily for 30 days and measured every 2 days", "assay_type": "organism-based, SW-620", "details": "in vivo, po, 720 h, dose 15-60 mg/kg, time 30 day"}, "[20]": {"molecular_target": "T1, Phosphatidylinositol 4,5-bisphosphate 3-kinase catalytic subunit delta isoform", "assay": "Inhibition of PI3Kdelta (unknown origin) using PIP2 as substrate incubated for 2 hrs in presence of ATP by Kinase Glo luminescence assay"}, "HeLa [21]": {"tested_on": "HeLa", "assay": "Antitumor activity against human HeLa cells xenografted in BALB/c nude mouse assessed as tumor growth inhibition at 30 mg/kg, IG administered daily for 30 days and measured every 2 days relative to control", "assay_type": "functional", "details": "po, 720 h, time 30 day, read-out: TGI"}},
  "data": [
    {"smiles": "Cc1nc2cnc3ccc(-c4cnc5[nH]ccc5c4)cc3c2n1-c1ccc(C(C)(C)C#N)nc1", "values": [
      {"measurement": "inhibition in vivo at 15 mg/kg", "setting": "HeLa [1]", "value": 60.8, "unit": "%"},
      {"measurement": "viability at 1.25 µM", "setting": "HeLa [2]", "value": 41.2, "unit": "%"},
      {"measurement": "Activity", "setting": "HeLa [3]", "value": 7.4, "unit": "%"},
      {"measurement": "Activity", "setting": "HeLa [4]", "value": 6.13, "unit": "%"},
      {"measurement": "inhibition at 1.25 µM", "setting": "SW-620 [5]", "value": 100, "unit": "%"},
      {"measurement": "IC50", "setting": "[6]", "value": 4, "unit": "nM"},
      {"measurement": "Activity", "setting": "[7]", "value": "Non-Toxic"},
      {"measurement": "viability at 0.3125 µM", "setting": "HeLa [8]", "value": 89.9, "unit": "%"},
      {"measurement": "inhibition", "setting": "SW-620 [9]", "value": "Dde"},
      {"measurement": "Activity", "setting": "HeLa [10]", "value": 2.75, "unit": "%"},
      {"measurement": "Activity", "setting": "HeLa [11]", "value": 8.81, "unit": "%"},
      {"measurement": "IC50", "setting": "[12]", "value": 79.3, "unit": "nM"},
      {"measurement": "Activity", "setting": "HeLa [13]", "value": 26.11, "unit": "%"},
      {"measurement": "IC50", "setting": "HeLa [14]", "value": 90, "unit": "nM"},
      {"measurement": "Activity", "setting": "HeLa [15]", "value": 0.84, "unit": "%"},
      {"measurement": "Activity", "setting": "HeLa [16]", "value": 27.18, "unit": "%"},
      {"measurement": "Vd", "setting": "[17]", "value": 1.53, "unit": "L/kg"},
      {"measurement": "IC50", "setting": "[18]", "value": 7, "unit": "nM"},
      {"measurement": "Activity", "setting": "[19]", "value": "Non-Toxic"},
      {"measurement": "IC50", "setting": "[20]", "value": 4.6, "unit": "nM"},
      {"measurement": "inhibition in vivo at 30 mg/kg", "setting": "HeLa [21]", "value": 73.5, "unit": "%"}
    ]}
  ]
}
